Measurements published in patent publication US10166216B2 (Rigel Pharmaceuticals, Inc., priority 2006, dated 2019).

Each compound was assayed against Axl (Homo sapiens (Human), UniProt P30530) (assay: Phospho-Akt in-cell Western assay (Axl-antibody cross-linking stimulation)). Details: inhibition of Axl activity, Hela cells, phospho-Akt readout; Table 4, formula (Ib2).
Format: cell-based
In short: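 HeLa cells on poly-L-lysine, starved 24 hrs with Axl/Fc, pre-treated with compound 1 hr at 37° C., then stimulated 5 min with Axl primary/secondary antibody cluster. Fixed cells probed for phospho-Akt by chemiluminescent in-cell Western; signal normalized to crystal violet cell number.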

Sequence of Axl (P30530 26-894): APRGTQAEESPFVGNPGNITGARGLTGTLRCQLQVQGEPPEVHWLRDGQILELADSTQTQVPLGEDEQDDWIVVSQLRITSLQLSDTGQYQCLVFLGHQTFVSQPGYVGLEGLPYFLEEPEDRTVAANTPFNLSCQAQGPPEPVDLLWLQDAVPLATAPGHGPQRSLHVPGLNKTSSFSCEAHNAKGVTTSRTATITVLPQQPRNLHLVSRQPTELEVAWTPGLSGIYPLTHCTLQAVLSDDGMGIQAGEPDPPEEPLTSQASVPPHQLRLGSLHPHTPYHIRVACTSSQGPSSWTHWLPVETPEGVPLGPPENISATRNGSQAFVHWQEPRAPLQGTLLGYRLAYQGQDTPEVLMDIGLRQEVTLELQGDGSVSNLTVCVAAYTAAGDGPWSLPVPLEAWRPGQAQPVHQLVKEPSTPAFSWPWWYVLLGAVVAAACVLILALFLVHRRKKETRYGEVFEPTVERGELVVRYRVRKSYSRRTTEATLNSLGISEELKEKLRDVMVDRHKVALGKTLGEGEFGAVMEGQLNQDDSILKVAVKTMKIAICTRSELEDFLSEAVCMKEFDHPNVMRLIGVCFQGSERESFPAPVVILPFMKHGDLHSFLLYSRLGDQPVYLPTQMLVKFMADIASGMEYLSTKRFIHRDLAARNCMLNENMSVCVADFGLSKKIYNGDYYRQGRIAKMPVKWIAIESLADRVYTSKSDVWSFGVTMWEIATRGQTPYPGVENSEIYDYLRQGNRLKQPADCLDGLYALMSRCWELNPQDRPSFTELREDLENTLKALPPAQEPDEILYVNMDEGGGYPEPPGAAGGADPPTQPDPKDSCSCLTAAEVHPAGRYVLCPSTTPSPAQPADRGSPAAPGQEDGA

Q: `Nc1nc(Nc2ccc(N3CCN(C4CCCC4)CC3)c(F)c2)n(-c2nc3ccccc3c3ccccc23)n1` [Compound 205, 1-(phenanthridin-6-yl)-N^5-(3-fluoro-4-(4-cyclopentylpiperazin-1-yl)phenyl)-1H-1,2,4-triazole-3,5-diamine] was tested. Which IC50 did it give?
A: < 1 µM

Same assay, conditions: inhibition of Axl activity, Hela cells, phospho-Akt readout; Table 5, formula (Ia3)

Q: With `COc1cc2ncnc(-n3nc(Nc4ccc(C(=O)N5CCN(C6CCCC6)CC5)cc4)nc3N)c2cc1OC` [Compound 206, 1-(6,7-dimethoxyquinazolin-4-yl)-N^3-(4-(4-(cyclopentyl)piperazin-1-ylcarbonyl)phenyl)-1H-1,2,4-triazole-3,5-diamine] as the compound, how does the IC50 read?
A: < 1 µM

Q: How did the IC50 turn out when `Cc1csc2c(-n3nc(Nc4ccc(C(=O)N5CCN(C6CCCC6)CC5)cc4)nc3N)ncnc12` [Compound 207, 1-(7-methylthieno[3,2-d]pyrimidin-4-yl)-N^3-(4-(4-(cyclopentyl)piperazin-1-ylcarbonyl)phenyl)-1H-1,2,4-triazole-3,5-diamine] was run?
A: < 1 µM

Q: How did the IC50 turn out when `Cc1csc2c(-n3nc(Nc4ccc(C(=O)NCCN5CCCC5)cc4)nc3N)nc(Cl)nc12` [Compound 208, 1-(7-methyl-2-chlorothieno[3,2-d]pyrimidin-4-yl)-N^3-(4-((2-(pyrrolidin-1-yl)ethyl)aminocarbonyl)phenyl)-1H-1,2,4-triazole-3,5-diamine] was run?
A: < 1 µM

Q: `COc1cc2ncnc(-n3nc(Nc4ccc(N5CCC(N6CCCCC6)CC5)c(F)c4)nc3N)c2cc1OC` [Compound 209, 1-(6,7-dimethoxyquinazolin-4-yl)-N^3-(3-fluoro-4-(4-piperidin-1-ylpiperidin-1-yl)phenyl)-1H-1,2,4-triazole-3,5-diamine] was tested. Which IC50 did it give?
A: < 1 µM

Q: Which IC50 does the source give for `Cc1csc2c(-n3nc(Nc4ccc(N5CCC(N6CCCCC6)CC5)c(F)c4)nc3N)nc(Cl)nc12` [Compound 210, 1-(7-methyl-2-chlorothieno[3,2-d]pyrimidin-4-yl)-N^3-(3-fluoro-4-(4-piperidin-1-ylpiperidin-1-yl)phenyl)-1H-1,2,4-triazole-3,5-diamine] here?
A: < 1 µM

Q: Which IC50 does the source give for `CCN(CC)C1CCN(c2ccc(Nc3nc(N)n(-c4nc(Cl)nc5c(C)csc45)n3)cc2F)C1` (stereo not shown) [Compound 211, 1-(7-methyl-2-chlorothieno[3,2-d]pyrimidin-4-yl)-N^3-(3-fluoro-4-(3-diethylaminopyrrolidin-1-yl)phenyl)-1H-1,2,4-triazole-3,5-diamine] here?
A: < 1 µM

Q: Which IC50 does the source give for `CN1CCC(c2ccc(Nc3nc(N)n(-c4nc5ccccc5c5ccccc45)n3)cc2)CC1` [Compound 213, 1-(phenanthridin-6-yl)-N^3-(4-(1-methylpiperidin-4-yl)phenyl)-1H-1,2,4-triazole-3,5-diamine] here?
A: < 1 µM

Q: `Cc1cc(Nc2nc(N)n(-c3nc4ccccc4c4ccccc34)n2)ccc1N1CCC(N2CCCC2)CC1` [Compound 214, 1-(phenanthridin-6-yl)-N^3-(3-methyl-4-(4-pyrrolidin-1-ylpiperidin-1-yl)phenyl)-1H-1,2,4-triazole-3,5-diamine] was tested. Which IC50 did it give?
A: < 1 µM

Q: Which IC50 does the source give for `COc1cc2ncnc(-n3nc(Nc4ccc(N5Cc6ccccc6C5)c(F)c4)nc3N)c2cc1OC` [Compound 216, 1-(6,7-dimethoxyquinazolin-4-yl)-N^3-(3-fluoro-4-(isoindolin-2-yl)phenyl)-1H-1,2,4-triazole-3,5-diamine] here?
A: > 20 µM

Q: For `CC(C)c1ccc(-n2nc(Nc3ccc(N4CCOCC4)cc3)nc2N)cc1` [Compound 218, 1-(4-isopropylphenyl)-N^3-(4-morpholinophenyl)-1H-1,2,4-triazole-3,5-diamine], which IC50 is on record?
A: > 20 µM

Same assay, conditions: inhibition of Axl activity, Hela cells, phospho-Akt readout; Table 7, formula (Ia4)

Q: `Cc1csc2c(-n3nc(Nc4ccc5c(c4)CCC(N4CCCC4)CC5)nc3N)nc(Cl)nc12` (stereo not shown) [Compound 219, 1-(7-methyl-2-chlorothieno[3,2-d]pyrimidin-4-yl)-N^3-(7-pyrrolidin-1-yl-6,7,8,9-tetrahydro-5H-benzo[7]annulene-2-yl)-1H-1,2,4-triazole-3,5-diamine] was tested. Which IC50 did it give?
A: < 1 µM

Q: `COc1cc2ncnc(-n3nc(Nc4ccc5c(c4)CCC(N4CCCC4)CC5)nc3N)c2cc1OC` (stereo not shown) [Compound 220, 1-(6,7-dimethoxy-quinazolin-4-yl)-N^3-(7-pyrrolidin-1-yl-6,7,8,9-tetrahydro-5H-benzo[7]annulene-2-yl)-1H-1,2,4-triazole-3,5-diamine] was tested. Which IC50 did it give?
A: < 1 µM

Q: How did the IC50 turn out when `Cc1csc2c(-n3nc(Nc4ccc5c(c4)CCC(N(C)C4CC6CCC4C6)CC5)nc3N)nc(Cl)nc12` (stereo not shown) [Compound 221, 1-(7-methyl-2-chlorothieno[3,2-d]pyrimidin-4-yl)-N^3-(7-(N-methyl-N-bicyclo[2.2.1]heptan-2-yl)amino-6,7,8,9-tetrahydro-5H-benzo[7]annulene-2-yl)-1H-1,2,4-triazole-3,5-diamine] was run?
A: < 1 µM

Q: For `Cc1csc2c(-n3nc(Nc4ccc5c(c4)CCC(NC4CC6CCC4C6)CC5)nc3N)nc(Cl)nc12` (stereo not shown) [Compound 222, 1-(7-methyl-2-chlorothieno[3,2-d]pyrimidin-4-yl)-N^3-(7-(N-bicyclo[2.2.1]heptan-2-yl)amino-6,7,8,9-tetrahydro-5H-benzo[7]annulene-2-yl)-1H-1,2,4-triazole-3,5-diamine], which IC50 is on record?
A: < 1 µM

Q: `COc1cc2ncnc(-n3nc(Nc4ccc5c(c4)CCC(NC4CC6CCC4C6)CC5)nc3N)c2cc1OC` (stereo not shown) [Compound 223, 1-(6,7-dimethoxyquinazolin-4-yl)-N^3-(7-(N-bicyclo[2.2.1]heptan-2-yl)amino-6,7,8,9-tetrahydro-5H-benzo[7]annulene-2-yl)-1H-1,2,4-triazole-3,5-diamine] was tested. Which IC50 did it give?
A: < 1 µM

Q: Which IC50 does the source give for `COc1cc2ncnc(-n3nc(Nc4ccc5c(c4)CCC(N(C)C4CC6CCC4C6)CC5)nc3N)c2cc1OC` (stereo not shown) [Compound 224, 1-(6,7-dimethoxy-quinazolin-4-yl)-N^3-(7-(N-methyl-N-bicyclo[2.2.1]heptan-2-yl)amino-6,7,8,9-tetrahydro-5H-benzo[7]annulene-2-yl)-1H-1,2,4-triazole-3,5-diamine] here?
A: < 1 µM

Same assay, conditions: inhibition of Axl activity, phospho-Akt in-cell Western assay

Q: `Cc1csc2c(-n3nc(Nc4ccc(N5CCN([C@H]6C[C@@H]7CC[C@H]6C7)CC5)c(F)c4)nc3N)ncnc12` [Compound 201, 1-(7-methylthieno[3,2-d]pyrimidin-4-yl)-N^3-(3-fluoro-4-(4-((1S,2S,4R)-bicyclo[2.2.1]heptan-2-yl)-piperazin-1-yl)phenyl)-1H-1,2,4-triazole-3,5-diamine] was tested. Which IC50 did it give?
A: < 1 µM

Q: With `Cc1cc(N2CCN(C3CC4CCC3C4)CC2)ccc1Nc1nc(N)n(-c2ncnc3c(C)csc23)n1` (stereo not shown) [Compound 202, 1-(7-methylthieno[3,2-d]pyrimidin-4-yl)-N^3-(2-methyl-4-(4-(bicyclo[2.2.1]heptan-2-yl)-piperazin-1-yl)phenyl)-1H-1,2,4-triazole-3,5-diamine] as the compound, how does the IC50 read?
A: < 1 µM

Q: How did the IC50 turn out when `Cc1nnc(-n2nc(Nc3ccc(N4CCN(C5CC6CCC5C6)CC4)c(F)c3)nc2N)c2sccc12` (stereo not shown) [Compound 203, 1-(4-methylthieno[3,2-d]pyridazin-7-yl)-N^3-(3-fluoro-4-(4-(bicyclo[2.2.1]heptan-2-yl)-piperazin-1-yl)phenyl)-1H-1,2,4-triazole-3,5-diamine] was run?
A: < 1 µM

Q: `Cc1cc(Nc2nc(N)n(-c3nnc(C)c4ccsc34)n2)ccc1N1CCN(C2CC3CCC2C3)CC1` (stereo not shown) [Compound 217, 1-(4-methylthieno[3,2-d]pyridazin-7-yl)-N^3-(3-methyl-4-(4-(bicyclo[2.2.1]heptan-2-yl)-piperazin-1-yl)phenyl)-1H-1,2,4-triazole-3,5-diamine] was tested. Which IC50 did it give?
A: < 1 µM

Q: `Cc1cc(Nc2nc(N)n(-c3nc(Cl)nc4c(C)csc34)n2)ccc1N1CCN(C2CC3CCC2C3)CC1` (stereo not shown) [Compound 225, 1-(7-methyl-2-chlorothieno[3,2-d]pyrimidin-4-yl)-N^3-(3-methyl-4-(4-(bicyclo[2.2.1]heptan-2-yl)piperazin-1-yl)phenyl)-1H-1,2,4-triazole-3,5-diamine] was tested. Which IC50 did it give?
A: < 1 µM

Q: `Cc1nnc(-n2nc(Nc3ccc(N4CCN([C@H]5C[C@@H]6CC[C@H]5C6)CC4)c(F)c3)nc2N)c2sccc12` [Compound 226, 1-(4-methylthieno[3,2-d]pyridazin-7-yl)-N^3-(3-fluoro-4-(4-((1S,2S,4R)-bicyclo[2.2.1]heptan-2-yl)piperazin-1-yl)phenyl)-1H-1,2,4-triazole-3,5-diamine] was tested. Which IC50 did it give?
A: < 1 µM

Q: Which IC50 does the source give for `COc1ccc2nc(Cl)c(-n3nc(Nc4ccc(N5CCN([C@H]6C[C@@H]7CC[C@H]6C7)CC5)c(F)c4)nc3N)nc2c1` [Compound 227, 1-(2-chloro-6-methoxy-quinoxalin-3-yl)-N^3-(3-fluoro-4-(4-((1S,2S,4R)-bicyclo[2.2.1]heptan-2-yl)piperazin-1-yl)phenyl)-1H-1,2,4-triazole-3,5-diamine] here?
A: 1 to 10 µM

Q: Which IC50 does the source give for `COc1cc2c(C)nnc(-n3nc(Nc4ccc(N5CCN([C@H]6C[C@@H]7CC[C@H]6C7)CC5)c(F)c4)nc3N)c2cc1OC` [Compound 228, 1-(6,7-dimethoxy-1-methylphthalazin-4-yl)-N^3-(3-fluoro-4-(4-((1S,2S,4R)-bicyclo[2.2.1]heptan-2-yl)piperazin-1-yl)phenyl)-1H-1,2,4-triazole-3,5-diamine] here?
A: > 20 µM

Q: `Nc1nc(Nc2ccc(N3CCN([C@H]4C[C@@H]5CC[C@H]4C5)CC3)c(F)c2)nn1-c1ccc(-c2ccccc2)nn1` [Compound 229, 1-(6-phenylpyridazin-3-yl)-N^3-(3-fluoro-4-(4-((1S,2S,4R)-bicyclo[2.2.1]heptan-2-yl)piperazin-1-yl)phenyl)-1H-1,2,4-triazole-3,5-diamine] was tested. Which IC50 did it give?
A: 1 to 10 µM

Q: Which IC50 does the source give for `Nc1nc(Nc2ccc(N3CCN([C@H]4CC5CCC4C5)CC3)c(F)c2)nn1-c1cc(-c2ccccc2)ccn1` (stereo partly drawn) [Compound 230, 1-(4-phenylpyridin-2-yl)-N^3-(3-fluoro-4-(4-((2S)-bicyclo[2.2.1]heptan-2-yl)piperazin-1-yl)phenyl)-1H-1,2,4-triazole-3,5-diamine] here?
A: 1 to 10 µM

Q: For `Cc1nnc(-n2nc(Nc3ccc(N4CCN([C@H]5CC6CCC5C6)CC4)c(Cl)c3)nc2N)c2sccc12` (stereo partly shown) [Compound 231, 1-(4-methylthieno[3,2-d]pyridazin-7-yl)-N^3-(3-chloro-4-(4-((2)S-bicyclo[2.2.1]heptan-2-yl)piperazin-1-yl)phenyl)-1H-1,2,4-triazole-3,5-diamine], which IC50 is on record?
A: < 1 µM
